Laboratory results published in patent US20260285855A1, “HETEROARYL DERIVATIVES AS DDRS INHIBITORS” (CHIESI FARMACEUTICI S.P.A., priority 2023, published 2026).

Columns and labels:
DDR1 = target: T1, DDR1 (Homo sapiens, UniProt Q08345); test: LanthaScreen Europium Kinase Binding assay, DDR1; details: 5 nM DDR1, 20 nM Kinase Tracer 178, 1 h at rt; Ki from IC50 by Cheng-Prusoff; read-out: Ki DDR1
T1 construct: purchased Carna Biosciences
Description: (§1) DDR1 and DDR2 binding assays were performed using Life Technologies LanthaScreen™ Europium Kinase Binding assay. […] IC50 values were determined in GraphPad Prism 7.0 software, using 4 parameter model: log (inhibitor) vs. response. IC50 values were converted in Ki using the Cheng-Prusoff equation (Ki-IC50/(1+ [Tracer]/Kd).

DDR2 = target: T2, DDR2 (Homo sapiens, UniProt Q16832); test: LanthaScreen Europium Kinase Binding assay, DDR2; details: 5 nM DDR2, 10 nM Kinase Tracer 178, 1 h at rt; Ki from IC50 by Cheng-Prusoff; read-out: Ki DDR2
T2 construct: purchased Life Technologies
T2 sequence (Q16832 22-855): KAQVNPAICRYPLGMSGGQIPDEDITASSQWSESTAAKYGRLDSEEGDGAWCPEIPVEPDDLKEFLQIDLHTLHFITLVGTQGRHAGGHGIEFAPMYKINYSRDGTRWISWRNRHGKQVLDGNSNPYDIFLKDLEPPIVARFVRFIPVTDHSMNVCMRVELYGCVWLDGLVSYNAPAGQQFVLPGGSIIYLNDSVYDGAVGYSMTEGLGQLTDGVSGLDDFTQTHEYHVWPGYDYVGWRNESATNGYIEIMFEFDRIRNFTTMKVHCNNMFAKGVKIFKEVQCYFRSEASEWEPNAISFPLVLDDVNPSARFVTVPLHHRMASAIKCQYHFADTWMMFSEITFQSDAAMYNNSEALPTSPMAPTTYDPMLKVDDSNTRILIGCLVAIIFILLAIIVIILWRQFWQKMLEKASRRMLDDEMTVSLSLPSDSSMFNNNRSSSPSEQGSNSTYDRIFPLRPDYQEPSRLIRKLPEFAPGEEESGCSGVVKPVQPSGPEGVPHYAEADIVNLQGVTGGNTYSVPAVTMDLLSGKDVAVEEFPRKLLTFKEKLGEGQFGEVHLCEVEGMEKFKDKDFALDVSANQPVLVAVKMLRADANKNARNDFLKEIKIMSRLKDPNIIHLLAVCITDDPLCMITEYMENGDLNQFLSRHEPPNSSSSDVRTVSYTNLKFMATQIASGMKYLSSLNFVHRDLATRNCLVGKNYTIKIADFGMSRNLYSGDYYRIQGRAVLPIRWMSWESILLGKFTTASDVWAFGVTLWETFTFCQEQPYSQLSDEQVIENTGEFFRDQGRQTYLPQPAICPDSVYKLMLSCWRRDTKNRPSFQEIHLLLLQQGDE
Description: as §1

T1 sequence (Q08345 19-913): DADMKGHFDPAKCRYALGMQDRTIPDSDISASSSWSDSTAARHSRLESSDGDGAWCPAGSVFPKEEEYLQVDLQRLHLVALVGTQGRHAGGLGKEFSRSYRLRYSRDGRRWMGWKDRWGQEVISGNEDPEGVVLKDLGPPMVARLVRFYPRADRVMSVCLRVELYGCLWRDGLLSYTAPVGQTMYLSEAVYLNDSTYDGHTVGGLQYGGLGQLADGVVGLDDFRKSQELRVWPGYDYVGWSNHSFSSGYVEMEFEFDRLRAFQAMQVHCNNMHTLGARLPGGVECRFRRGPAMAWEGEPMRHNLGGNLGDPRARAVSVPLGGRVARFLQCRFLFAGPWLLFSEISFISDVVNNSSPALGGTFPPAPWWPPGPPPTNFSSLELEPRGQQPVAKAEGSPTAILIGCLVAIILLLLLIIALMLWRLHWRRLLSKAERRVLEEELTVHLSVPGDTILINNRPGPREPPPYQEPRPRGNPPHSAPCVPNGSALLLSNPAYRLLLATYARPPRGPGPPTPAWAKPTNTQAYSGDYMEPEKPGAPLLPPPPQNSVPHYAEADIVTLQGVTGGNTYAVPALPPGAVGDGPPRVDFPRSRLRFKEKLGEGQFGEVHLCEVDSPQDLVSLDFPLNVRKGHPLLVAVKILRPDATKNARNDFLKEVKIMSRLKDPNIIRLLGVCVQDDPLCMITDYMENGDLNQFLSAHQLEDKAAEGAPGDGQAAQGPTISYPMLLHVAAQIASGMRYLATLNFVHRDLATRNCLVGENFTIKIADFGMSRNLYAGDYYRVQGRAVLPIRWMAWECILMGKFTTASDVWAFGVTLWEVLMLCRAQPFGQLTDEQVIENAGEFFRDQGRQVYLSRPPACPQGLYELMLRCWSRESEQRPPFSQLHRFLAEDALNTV

| Structure (SMILES) | Ki (DDR1) | Ki (DDR2) |
| --- | --- | --- |
| Cn1ccn2ncc(C(=O)N3CC4(CC(OC(=O)Nc5cc(C(F)(F)F)ncn5)C4)C3)c12 [Example 297, 2-(1-methyl-1H-imidazo[1,2-b]pyrazole-7-carbonyl)-2-azaspiro[3.3]heptan-6-yl(6-(trifluoromethyl)pyrimidin-4-yl)carbamate] | < 5 nM | 5 to 25 nM |
| Cn1ccn2ncc(C(=O)N3CC4(CC(NC(=O)Nc5cc(C#N)cc(OC(F)(F)F)c5)C4)C3)c12 [Example 71, 1-(3-cyano-5-(trifluoromethoxy)phenyl)-3-(2-(1-methyl-1H-imidazo[1,2-b]pyrazole-7-carbonyl)-2-azaspiro[3.3]heptan-6-yl)urea] | < 5 nM | < 5 nM |
| Cn1ccc2ncnc(C(=O)N3CC4(CC(NC(=O)Nc5cccc(C(F)(F)F)c5)C4)C3)c21 [Example 160, 1-(2-(5-methyl-5H-pyrrolo[3,2-d]pyrimidine-4-carbonyl)-2-azaspiro[3.3]heptan-6-yl)-3-(3-(trifluoromethyl)phenyl)urea] | 5 to 25 nM | 5 to 25 nM |
| CN(C(=O)Nc1cccc(S(F)(F)(F)(F)F)c1)C1CC2(C1)CN(C(=O)c1cnn3ccn(CCO)c13)C2 [Example 210, 1-(2-(1-(2-hydroxyethyl)-1H-imidazo[1,2-b]pyrazole-7-carbonyl)-2-azaspiro[3.3]heptan-6-yl)-1-methyl-3-(3-(pentafluoro-16-sulfaneyl)phenyl)urea] | < 5 nM | < 5 nM |
| Cn1cc(-c2ccc3c(C(=O)N4CC5(CC(NC(=O)Nc6cccc(C(F)(F)F)c6)C5)C4)cnn3c2)cn1 [Example 182, 1-(2-(6-(1-methyl-1H-pyrazol-4-yl)pyrazolo[1,5-a]pyridine-3-carbonyl)-2-azaspiro[3.3]heptan-6-yl)-3-(3-(trifluoromethyl)phenyl)urea] | < 5 nM | < 5 nM |
| O=C(Nc1cc(OC(F)(F)F)ccn1)OC1CC2(C1)CN(C(=O)c1cnn3ccsc13)C2 [Example 272, 2-(pyrazolo[5,1-b]thiazole-7-carbonyl)-2-azaspiro[3.3]heptan-6-yl(4-(trifluoromethoxy)pyridin-2-yl)carbamate] | < 5 nM | < 5 nM |
| CN(C(=O)Nc1cc(C(F)(F)F)cc(C(F)(F)F)c1)C1CC2(C1)CN(C(=O)c1cnn3ccn(C)c13)C2 [Example 257, 3-(3,5-bis(trifluoromethyl)phenyl)-1-methyl-1-(2-(1-methyl-1H-imidazo[1,2-b]pyrazole-7-carbonyl)-2-azaspiro[3.3]heptan-6-yl)urea] | < 5 nM | 5 to 25 nM |
| COc1ccc(OC(F)F)cc1NC(=O)NC1CC2(C1)CN(C(=O)c1cnn3ccn(C)c13)C2 [Example 91, 1-(5-(difluoromethoxy)-2-methoxyphenyl)-3-(2-(1-methyl-1H-imidazo[1,2-b]pyrazole-7-carbonyl)-2-azaspiro[3.3]heptan-6-yl)urea] | < 5 nM | 5 to 25 nM |
| O=C(Nc1cccc(C(F)(F)F)c1)NC1CC2(C1)CN(C(=O)c1cnn3ccn(CC4COC4)c13)C2 [Example 166, 1-(2-(1-(oxetan-3-ylmethyl)-1H-imidazo[1,2-b]pyrazole-7-carbonyl)-2-azaspiro[3.3]heptan-6-yl)-3-(3-(trifluoromethyl)phenyl)urea] | < 5 nM | 5 to 25 nM |
| CN(C(=O)Nc1cc(C#N)cc(C(F)(F)F)c1)C1CC2(C1)CN(C(=O)c1ncnc3[nH]ccc13)C2 [Example 284, 1-(2-(7H-pyrrolo[2,3-d]pyrimidine-4-carbonyl)-2-azaspiro[3.3]heptan-6-yl)-3-(3-cyano-5-(trifluoromethyl)phenyl)-1-methylurea] | < 5 nM | 5 to 25 nM |
| Nc1cccn2ncc(C(=O)N3CC4(CC(NC(=O)Nc5cccc(C(F)(F)F)c5)C4)C3)c12 [Example 32, 1-(2-(4-aminopyrazolo[1,5-a]pyridine-3-carbonyl)-2-azaspiro [3.3]heptan-6-yl)-3-(3-(trifluoromethyl)phenyl)urea] | < 5 nM | 5 to 25 nM |
| CN(C(=O)Nc1cccc(C(F)(F)F)c1)C1CC2(C1)CN(C(=O)c1ccnc3[nH]ncc13)C2 [Example 128, 1-(2-(1H-pyrazolo[3,4-b]pyridine-4-carbonyl)-2-azaspiro[3.3]heptan-6-yl)-1-methyl-3-(3-(trifluoromethyl)phenyl)urea] | < 5 nM | 5 to 25 nM |
| CN(C(=O)Nc1cc(OC(F)(F)F)ccn1)C1CC2(C1)CN(C(=O)c1cnn3ccncc13)C2 [Example 190, 1-methyl-1-(2-(pyrazolo[1,5-a]pyrazine-3-carbonyl)-2-azaspiro[3.3]heptan-6-yl)-3-(4-(trifluoromethoxy)pyridin-2-yl)urea] | 5 to 25 nM | 25 to 100 nM |
| Cn1ccn2ncc(C(=O)N3CC4(CC(NC(=O)Nc5cccc(C(F)F)c5)C4)C3)c12 [Example 63, 1-(3-(difluoromethyl)phenyl)-3-(2-(1-methyl-1H-imidazo[1,2-b]pyrazole-7-carbonyl)-2-azaspiro[3.3]heptan-6-yl)urea] | < 5 nM | 5 to 25 nM |
| O=C(Nc1cccc(CC(F)(F)F)c1)NC1CC2(C1)CN(C(=O)c1cnn3ccsc13)C2 [Example 31, 1-(2-(pyrazolo[5,1-b]thiazole-7-carbonyl)-2-azaspiro[3.3]heptan-6-yl)-3-(3-(2,2,2-trifluoroethyl)phenyl)urea] | < 5 nM | < 5 nM |
| CN(C(=O)Nc1ccc(F)c(C(F)(F)F)c1)C1CC2(C1)CN(C(=O)c1cnn3ccn(C)c13)C2 [Example 131, 3-(4-fluoro-3-(trifluoromethyl)phenyl)-1-methyl-1-(2-(1-methyl-1H-imidazo[1,2-b]pyrazole-7-carbonyl)-2-azaspiro[3.3]heptan-6-yl)urea] | < 5 nM | 5 to 25 nM |
| COc1ncc(C(F)(F)F)cc1NC(=O)NC1CC2(C1)CN(C(=O)c1cnn3ccsc13)C2 [Example 262, 1-(2-methoxy-5-(trifluoromethyl)pyridin-3-yl)-3-(2-(pyrazolo[5,1-b]thiazole-7-carbonyl)-2-azaspiro[3.3]heptan-6-yl)urea] | < 5 nM | 5 to 25 nM |
| COc1ccc(OC(F)(F)F)cc1NC(=O)N(C)C1CC2(C1)CN(C(=O)c1ncnc3ccsc13)C2 [Example 77, 3-(2-methoxy-5-(trifluoromethoxy)phenyl)-1-methyl-1-(2-(thieno[3,2-d]pyrimidine-4-carbonyl)-2-azaspiro[3.3]heptan-6-yl)urea] | < 5 nM | 5 to 25 nM |
| CN(C(=O)Nc1cncc(C(F)(F)F)c1)C1CC2(C1)CN(C(=O)c1cnn3ccc(N4CCC(F)(F)C4)cc13)C2 [Example 252, 1-(2-(5-(3,3-difluoropyrrolidin-1-yl)pyrazolo[1,5-a]pyridine-3-carbonyl)-2-azaspiro[3.3]heptan-6-yl)-1-methyl-3-(5-(trifluoromethyl)pyridin-3-yl)urea] | < 5 nM | 5 to 25 nM |
| COc1ccc(-c2ccc3c(C(=O)N4CC5(CC(N(C)C(=O)Nc6cncc(C(F)(F)F)c6)C5)C4)cnn3c2)cc1OC [Example 233, 1-(2-(6-(3,4-dimethoxyphenyl)pyrazolo [1,5-a]pyridine-3-carbonyl)-2-azaspiro[3.3]heptan-6-yl)-1-methyl-3-(5-(trifluoromethyl)pyridin-3-yl)urea] | < 5 nM | 5 to 25 nM |
| O=C(Nc1cccc(C(F)(F)F)c1)NC1CC2(C1)CN(C(=O)c1cnc3sccn13)C2 [Example 96, 1-(2-(imidazo[2,1-b]thiazole-5-carbonyl)-2-azaspiro[3.3]heptan-6-yl)-3-(3-(trifluoromethyl)phenyl)urea] | < 5 nM | < 5 nM |
| Cn1ccn2ncc(C(=O)N3CC4(CC(CC(=O)Nc5cccc(C(F)(F)F)c5)C4)C3)c12 [Example 141, 2-(2-(1-methyl-1H-imidazo[1,2-b]pyrazole-7-carbonyl)-2-azaspiro[3.3]heptan-6-yl)-N-(3-(trifluoromethyl)phenyl)acetamide] | < 5 nM | < 5 nM |
| Cn1ccn2ncc(C(=O)N3CC4(CC(NC(=O)Nc5cc(C#N)cc(S(F)(F)(F)(F)F)c5)C4)C3)c12 [Example 119, 1-(3-cyano-5-(pentafluoro-16-sulfaneyl)phenyl)-3-(2-(1-methyl-1H-imidazo[1,2-b]pyrazole-7-carbonyl)-2-azaspiro[3.3]heptan-6-yl)urea] | < 5 nM | < 5 nM |
| Cc1ccc(OC(F)(F)F)cc1NC(=O)N(C)C1CC2(C1)CN(C(=O)c1ncnc3[nH]ccc13)C2 [Example 201, 1-(2-(7H-pyrrolo[2,3-d]pyrimidine-4-carbonyl)-2-azaspiro[3.3]heptan-6-yl)-1-methyl-3-(2-methyl-5-(trifluoromethoxy)phenyl)urea] | < 5 nM | 5 to 25 nM |
